Reference: ChEMBL document CHEMBL1201862, “PubChem BioAssay data set” (2004)
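Five concentrations, 48 hours, 96-well plates. GI50 marks 50% less growth.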 The source made the active and inactive calls. Cut-off read from the data, not from the text of the source: active = GI50 up to about 1.1 µM and inactive = higher.

How the values were obtained:
Assay in all cases: NCI anticancer screen, dose series, 48 h
[1] = system: SK-OV-3
[2] = system: COLO 205
[3] = system: BT-549
[4] = system: HCT-15
[5] = system: NCI/ADR-RES
[6] = system: RXF 393
[7] = system: A549
[8] = system: RPMI-8226
[9] = system: ACHN
[10] = system: CCRF-CEM
[11] = system: OVCAR-5
[12] = system: M14
[13] = system: HOP-92
[14] = system: OVCAR-4
[15] = system: NCI-H522
[16] = system: MDA-N
[17] = system: UO-31
[18] = system: SF-539
[19] = system: TK-10

| SMILES | GI50 [1] | GI50 [2] | GI50 [3] | GI50 [4] | GI50 [5] | GI50 [6] | GI50 [7] | GI50 [8] | GI50 [9] | GI50 [10] | GI50 [11] | GI50 [12] | GI50 [13] | GI50 [14] | GI50 [15] | GI50 [16] | GI50 [17] | GI50 [18] | GI50 [19] |
| --- | --- | --- | --- | --- | --- | --- | --- | --- | --- | --- | --- | --- | --- | --- | --- | --- | --- | --- | --- |
| CC(C)(C)OC(=O)N1C(=O)C2CCCC21 (stereo unspecified) | > 100 µM (inactive) | > 100 µM (inactive) | > 100 µM (inactive) | > 100 µM | > 100 µM (inactive) | > 100 µM (inactive) | > 100 µM (inactive) | > 100 µM (inactive) | > 100 µM (inactive) | > 100 µM (inactive) | > 100 µM (inactive) | > 100 µM (inactive) | > 100 µM (inactive) | > 100 µM (inactive) |  |  |  |  |  |
| NC1CCCCC1.O=C(CP(=O)(O)O)NC(CC(=O)OCc1ccccc1)C(=O)OCc1ccccc1 (stereo unspecified) | > 100 µM (inactive) | > 100 µM (inactive) |  | > 100 µM | > 100 µM (inactive) | > 100 µM (inactive) | > 100 µM (inactive) | > 100 µM (inactive) | > 100 µM (inactive) | > 100 µM (inactive) | > 100 µM (inactive) | > 100 µM (inactive) | > 100 µM (inactive) | > 100 µM (inactive) | > 100 µM (inactive) | > 100 µM (inactive) | > 100 µM (inactive) | > 100 µM (inactive) |  |
| Cc1ccccc1C(=O)NC(O)(C(F)(F)F)C(F)(F)F | > 100 µM (inactive) | > 100 µM (inactive) |  | > 100 µM | 70 µM (inactive) | > 100 µM (inactive) | 82.4 µM (inactive) | 49.1 µM (inactive) | > 100 µM (inactive) | 58.3 µM (inactive) | > 100 µM (inactive) | > 100 µM (inactive) | > 100 µM (inactive) | 51.8 µM (inactive) | 47 µM (inactive) | > 100 µM (inactive) | 34.8 µM (inactive) | > 100 µM (inactive) | > 100 µM (inactive) |
| CCSC1=N/C(=C\c2ccccc2O)C(Nc2ccc(C)cc2)=N1 | 42.7 µM (inactive) | > 100 µM (inactive) | > 100 µM (inactive) | 59.7 µM | 56 µM (inactive) | 75.2 µM (inactive) | 47.4 µM (inactive) | > 100 µM (inactive) | 83.6 µM (inactive) | 31 µM (inactive) | > 100 µM (inactive) | 48.8 µM (inactive) | 36.1 µM (inactive) |  | 20.4 µM (inactive) |  | > 100 µM (inactive) | 75 µM (inactive) | > 100 µM (inactive) |
| Cc1cccc(NC2=NCCO2)c1Cl | > 100 µM (inactive) | > 100 µM (inactive) |  | > 100 µM | > 100 µM (inactive) | > 100 µM (inactive) | > 100 µM (inactive) | > 100 µM (inactive) | > 100 µM (inactive) | > 100 µM (inactive) | > 100 µM (inactive) | > 100 µM (inactive) | 32.7 µM (inactive) | > 100 µM (inactive) |  |  | > 100 µM (inactive) | > 100 µM (inactive) | > 100 µM (inactive) |
| CC1(C)[C@@H]2CC[C@@]1(C)[C@@H]1O[C@@H](O[C@@H](CN)c3cc(Cl)c(OCc4ccccc4)c(OCc4ccccc4)c3)C[C@H]21 | 0.175 µM (active) | 0.11 µM (active) |  |  |  | 0.15 µM (active) | 0.163 µM (active) | 0.0463 µM (active) | 0.169 µM (active) | 0.167 µM (active) | 0.166 µM (active) | 0.164 µM (active) | 0.171 µM (active) | 0.162 µM (active) | 0.186 µM (active) | 0.152 µM (active) | 0.173 µM (active) | 0.196 µM (active) | 0.177 µM (active) |
| C/C1=C\[C@H](C)C[C@H](C)OC(=O)C[C@H](c2ccc(O)cc2)NC(=O)[C@H](Cc2ccc(O)c(Br)c2)N(C)C(=O)[C@H](C)NC(=O)[C@@H](C)C1 | > 25 µM (inactive) | > 25 µM (inactive) |  | > 25 µM | > 25 µM (inactive) |  | > 25 µM (inactive) | > 25 µM (inactive) | > 25 µM (inactive) | > 25 µM (inactive) | > 25 µM (inactive) | > 25 µM (inactive) | > 25 µM (inactive) | > 25 µM (inactive) | > 25 µM (inactive) | > 25 µM (inactive) | > 25 µM (inactive) |  | > 25 µM (inactive) |
| Cn1c2c(c3ccccc31)CCN1OCC=C[C@@H](C(=O)O)[C@@H]21 | > 100 µM (inactive) | > 100 µM (inactive) |  | > 100 µM | > 100 µM (inactive) | > 100 µM (inactive) | > 100 µM (inactive) |  | > 100 µM (inactive) |  | > 100 µM (inactive) | > 100 µM (inactive) | 17.9 µM (inactive) | > 100 µM (inactive) | > 100 µM (inactive) | > 100 µM (inactive) | 51.3 µM (inactive) | > 100 µM (inactive) | > 100 µM (inactive) |
| CC(=O)OC[C@]1(C)CCCC2(C)C1CCC1C=C(C)[C@H]3CCC12C3 (stereo partly specified) | 44.1 µM (inactive) | 38.5 µM (inactive) |  | 48.3 µM |  | 44.4 µM (inactive) | 65.2 µM (inactive) | 62.7 µM (inactive) | > 100 µM (inactive) | > 100 µM (inactive) | > 100 µM (inactive) | 35.2 µM (inactive) |  | > 100 µM (inactive) | 10.6 µM (inactive) |  | > 100 µM (inactive) | 25.5 µM (inactive) | > 100 µM (inactive) |
| CCNc1nnc(CSc2nc(-c3ccccc3)c(-c3ccccc3)[nH]2)s1 | 20.1 µM (inactive) | 19.1 µM (inactive) |  | 18.3 µM |  |  | 28.7 µM (inactive) | 15.5 µM (inactive) | 23.3 µM (inactive) | 18.3 µM (inactive) | 21.4 µM (inactive) | 17.5 µM (inactive) | 15.8 µM (inactive) | 30.5 µM (inactive) | 19.9 µM (inactive) |  | 14 µM (inactive) | 18.7 µM (inactive) | 18.5 µM (inactive) |
| CC(C)(C)OC(=O)NCC(C#N)CNC(=O)OC(C)(C)C | > 100 µM (inactive) | > 100 µM (inactive) | > 100 µM (inactive) | > 100 µM | > 100 µM (inactive) | > 100 µM (inactive) | > 100 µM (inactive) | > 100 µM (inactive) | > 100 µM (inactive) | > 100 µM (inactive) | > 100 µM (inactive) | > 100 µM (inactive) | > 100 µM (inactive) | > 100 µM (inactive) | > 100 µM (inactive) |  | > 100 µM (inactive) | > 100 µM (inactive) | > 100 µM (inactive) |
| N#C/N=C(/N)NCc1ccccc1 | > 100 µM (inactive) | > 100 µM (inactive) |  | > 100 µM |  |  | > 100 µM (inactive) | > 100 µM (inactive) | > 100 µM (inactive) | > 100 µM (inactive) | > 100 µM (inactive) | > 100 µM (inactive) | > 100 µM (inactive) | > 100 µM (inactive) | > 100 µM (inactive) |  | > 100 µM (inactive) | > 100 µM (inactive) | > 100 µM (inactive) |
| CCOc1ccccc1NC(=O)CCc1nnc2s/c(=C\CCc3ccccc3)c(=O)n12 | > 100 µM (inactive) | > 100 µM (inactive) |  | > 100 µM |  | > 100 µM (inactive) | > 100 µM (inactive) | > 100 µM (inactive) | > 100 µM (inactive) | > 100 µM (inactive) | > 100 µM (inactive) | > 100 µM (inactive) | > 100 µM (inactive) | > 100 µM (inactive) | > 100 µM (inactive) |  | > 100 µM (inactive) | > 100 µM (inactive) | > 100 µM (inactive) |
| CCCC1C(C#N)(C#N)C(C#N)=C(N)C1(C)C(C)=O (stereo unspecified) | > 100 µM (inactive) | 65 µM (inactive) |  | 29.2 µM | > 100 µM (inactive) | 71 µM (inactive) | > 100 µM (inactive) | > 100 µM (inactive) | > 100 µM (inactive) | > 100 µM (inactive) | > 100 µM (inactive) | > 100 µM (inactive) | 36.3 µM (inactive) |  | 52.8 µM (inactive) | 42.7 µM (inactive) | > 100 µM (inactive) | > 100 µM (inactive) | > 100 µM (inactive) |
| CNC(=O)C1CCC(=O)N1CN(C(C)=O)c1ccccc1 (stereo unspecified) | > 100 µM (inactive) | > 100 µM (inactive) |  | > 100 µM | > 100 µM (inactive) | > 100 µM (inactive) | > 100 µM (inactive) | > 100 µM (inactive) | > 100 µM (inactive) | 0.0471 µM (active) | > 100 µM (inactive) | > 100 µM (inactive) | > 100 µM (inactive) | > 100 µM (inactive) | > 100 µM (inactive) | > 100 µM (inactive) | > 100 µM (inactive) | > 100 µM (inactive) | > 100 µM (inactive) |
| Oc1ccc2ccccc2c1CCc1c(O)ccc2ccccc12 | 15.8 µM (inactive) | 15.7 µM (inactive) |  | 14.4 µM | 13.6 µM (inactive) | 11.7 µM (inactive) | 11.7 µM (inactive) | 7.01 µM (inactive) | 16.4 µM (inactive) | 11.9 µM (inactive) | 14.1 µM (inactive) | 15.5 µM (inactive) | 11 µM (inactive) |  |  | 13.5 µM (inactive) |  | 16.2 µM (inactive) | 18.6 µM (inactive) |
| NC(=O)c1ncn(C2C=CC(CP(=O)(O)O)C2)c1N (stereo unspecified) | > 100 µM (inactive) | > 100 µM (inactive) |  | > 100 µM | > 100 µM (inactive) | > 100 µM (inactive) | > 100 µM (inactive) | > 100 µM (inactive) | > 100 µM (inactive) | > 100 µM (inactive) | > 100 µM (inactive) | > 100 µM (inactive) | > 100 µM (inactive) | > 100 µM (inactive) |  | > 100 µM (inactive) | > 100 µM (inactive) | > 100 µM (inactive) | > 100 µM (inactive) |
